Numbers after ± are expanded uncertainties.
conditions: 298.15 K; 101.33 kPa; Liquid

Compared with C1CCOC1 [tetrahydrofuran], C1CCCCC1 [cyclohexane] is higher in molar volume: 8.174e-05 ± 4e-08 m3/mol for the first, 0.0001088 ± 9e-08 m3/mol for the second.

Going from CCOCCO [2-ethoxyethan-1-ol] to COCCO [2-methoxyethan-1-ol], the molar volume falls from 9.742e-05 ± 4e-08 m3/mol to 7.926e-05 ± 3e-08 m3/mol.

CCO [ethanol] gave a molar volume of 5.866e-05 ± 5e-08 m3/mol.
